Reference: article PMC6738096 (British Journal of Cancer, 2019)
Like-named read-outs stand apart in the source and are kept apart here.

Key:
calcium channel = test: Functional patch-clamp test, calcium channel inhibition; type: cell-based
hERG [1] = molecular target: T1, hERG (Homo sapiens, UniProt Q12809); test: hERG channel functional assay; type: biochemical; settings: read-out: IC50, inhibition of the hERG channel, functional assay
CYP2D6 = CYP2D6 (Homo sapiens, UniProt P10635); test: biochemical
[2] = Telemetered dog cardiovascular study; type: in vivo
Description: Potential in vivo effects on the respiratory, central nervous and cardiovascular systems were evaluated in oral dose studies in rats and dogs.

hNav1.5 = molecular target: T2, hNav1.5 (Homo sapiens, UniProt Q14524); test: hNav1.5 expressed in HEK-293 cells; type: cell-based; settings: read-out: IC50 against hNav1.5
T2 construct: expressed in transfected cells; host or cells: HEK-293

ALK-positive tumours = test: Phase 1 trial: clinical activity, tumour response by RECIST 1.1; type: in vivo, human; settings: for Best overall response: Complete response / Best overall response: Progressive disease / Best overall response: Stable disease / Objective response: Complete response + partial response / Best overall response: Partial response: ALK-positive NSCLC, 40 mg every 8 hours; for Best overall response: Partial response: confirmed and unconfirmed
Description: The overall tumour response in all patients with measurable disease was evaluated, using Response Evaluation Criteria in Solid Tumors, version 1.1,[16] completed at times of radiologic assessment at weeks 4 and 8 after dosing and every 8 weeks thereafter. For patients without measurable disease at study entry, radiologic assessment was done as per investigator discretion.
While tumour response data were collected from 66 patients, here, we present response data only for patients with ALK-positive tumour samples (n = 22) receiving the RP2D (40 mg Q8h).

hERG [3] = molecular target: T1, hERG; test: hERG in vitro test, displacement of dofetilide binding
CYP3A4 = CYP3A4 (Homo sapiens, UniProt P08684); test: biochemical
[4] = Description: During the phase 1 trial, all patients were monitored by ECGs as part of safety evaluations. […] Cardiac function (QT, Bazett-corrected QT formula, Fridericia-corrected QT formula [QTcF], PR, QRS, RR and heart rate) was evaluated by a 12-lead ECG with triplicate readouts at scheduled time points, along with changes from baseline to each scheduled time point.
All the ΔQTcF data with matching drug concentration values were used for the analysis.

[5] = Phase 1 trial: plasma pharmacokinetics of TSR-011 IR (LC-MS/MS, noncompartmental analysis); type: in vivo, human
Description: To evaluate PK and establish the RP2D, blood samples were collected from all patients in the phase 1 dose-escalation trial at daily doses of 30–480 mg.
Plasma samples were processed through a Biotage (Uppsala, Sweden) ISOLUTE SLE + 200 μL of a 96-well-supported liquid extraction plate. […] The validated range was 0.87–433.25 nmol/L. The assay interbatch precision, expressed as percent coefficients of variation, ranged from 6.6 to 11.7%, and the interbatch accuracy, expressed as percent bias, ranged from –4.7 to 0.5%.
PK parameters were calculated using noncompartmental analysis (Phoenix WinNonlin version 7.0, Pharsight Corporation, Mountain View, CA, USA).

[6] = Prior ALK inhibitor-treated (n = 8)
[7] = ALK-positive patients (n = 22), 40 mg Q8h
[8] = previously treated with an ALK inhibitor, RP2D
[9] = single dose, over the 16-fold increase in dose (30–480 mg)
[10] = steady state, over the sixfold increase in dose (80–480 mg)

T1 sequence (Q12809 whole entry): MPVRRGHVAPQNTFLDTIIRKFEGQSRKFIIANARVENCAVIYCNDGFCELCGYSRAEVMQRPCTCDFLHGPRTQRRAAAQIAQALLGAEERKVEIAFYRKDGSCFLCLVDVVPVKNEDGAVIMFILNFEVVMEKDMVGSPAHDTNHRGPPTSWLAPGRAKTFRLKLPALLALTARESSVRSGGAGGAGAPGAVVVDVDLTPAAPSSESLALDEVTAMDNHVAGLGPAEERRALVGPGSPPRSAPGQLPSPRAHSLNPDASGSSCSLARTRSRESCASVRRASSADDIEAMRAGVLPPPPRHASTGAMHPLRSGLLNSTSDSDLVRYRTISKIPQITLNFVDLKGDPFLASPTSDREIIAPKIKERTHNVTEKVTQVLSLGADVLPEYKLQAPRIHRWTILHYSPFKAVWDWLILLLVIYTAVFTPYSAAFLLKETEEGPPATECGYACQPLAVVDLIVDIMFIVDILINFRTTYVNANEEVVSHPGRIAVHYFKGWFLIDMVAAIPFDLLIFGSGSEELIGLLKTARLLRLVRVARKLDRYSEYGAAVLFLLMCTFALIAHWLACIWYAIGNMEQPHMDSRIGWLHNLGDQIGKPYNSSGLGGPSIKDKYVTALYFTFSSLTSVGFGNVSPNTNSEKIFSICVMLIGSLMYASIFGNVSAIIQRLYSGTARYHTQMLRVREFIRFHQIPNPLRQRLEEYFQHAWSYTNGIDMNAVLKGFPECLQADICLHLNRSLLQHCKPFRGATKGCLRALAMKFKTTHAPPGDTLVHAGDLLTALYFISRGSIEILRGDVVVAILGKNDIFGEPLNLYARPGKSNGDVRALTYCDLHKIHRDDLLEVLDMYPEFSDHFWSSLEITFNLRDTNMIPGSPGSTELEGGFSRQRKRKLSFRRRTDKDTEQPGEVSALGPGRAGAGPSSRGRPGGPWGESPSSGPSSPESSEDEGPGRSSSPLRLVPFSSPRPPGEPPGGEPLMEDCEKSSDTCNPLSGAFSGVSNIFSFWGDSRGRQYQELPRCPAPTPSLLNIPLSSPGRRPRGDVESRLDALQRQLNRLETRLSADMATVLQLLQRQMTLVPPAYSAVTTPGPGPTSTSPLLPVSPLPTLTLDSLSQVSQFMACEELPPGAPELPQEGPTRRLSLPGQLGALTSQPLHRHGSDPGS
Sequence of CYP2D6 (P10635 whole entry): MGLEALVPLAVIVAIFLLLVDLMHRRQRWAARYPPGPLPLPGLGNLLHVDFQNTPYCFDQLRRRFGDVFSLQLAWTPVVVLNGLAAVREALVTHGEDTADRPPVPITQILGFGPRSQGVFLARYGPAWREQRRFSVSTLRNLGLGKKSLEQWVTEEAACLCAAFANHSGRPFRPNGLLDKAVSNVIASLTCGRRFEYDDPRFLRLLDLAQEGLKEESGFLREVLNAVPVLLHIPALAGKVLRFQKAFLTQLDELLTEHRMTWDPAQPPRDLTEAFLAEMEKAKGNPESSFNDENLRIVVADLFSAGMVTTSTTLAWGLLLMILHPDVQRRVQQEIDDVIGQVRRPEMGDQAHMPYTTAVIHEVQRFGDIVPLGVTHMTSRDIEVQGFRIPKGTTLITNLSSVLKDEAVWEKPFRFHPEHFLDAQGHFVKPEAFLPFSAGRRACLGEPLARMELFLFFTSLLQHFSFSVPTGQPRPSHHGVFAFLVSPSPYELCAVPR
T2 sequence (Q14524 whole entry): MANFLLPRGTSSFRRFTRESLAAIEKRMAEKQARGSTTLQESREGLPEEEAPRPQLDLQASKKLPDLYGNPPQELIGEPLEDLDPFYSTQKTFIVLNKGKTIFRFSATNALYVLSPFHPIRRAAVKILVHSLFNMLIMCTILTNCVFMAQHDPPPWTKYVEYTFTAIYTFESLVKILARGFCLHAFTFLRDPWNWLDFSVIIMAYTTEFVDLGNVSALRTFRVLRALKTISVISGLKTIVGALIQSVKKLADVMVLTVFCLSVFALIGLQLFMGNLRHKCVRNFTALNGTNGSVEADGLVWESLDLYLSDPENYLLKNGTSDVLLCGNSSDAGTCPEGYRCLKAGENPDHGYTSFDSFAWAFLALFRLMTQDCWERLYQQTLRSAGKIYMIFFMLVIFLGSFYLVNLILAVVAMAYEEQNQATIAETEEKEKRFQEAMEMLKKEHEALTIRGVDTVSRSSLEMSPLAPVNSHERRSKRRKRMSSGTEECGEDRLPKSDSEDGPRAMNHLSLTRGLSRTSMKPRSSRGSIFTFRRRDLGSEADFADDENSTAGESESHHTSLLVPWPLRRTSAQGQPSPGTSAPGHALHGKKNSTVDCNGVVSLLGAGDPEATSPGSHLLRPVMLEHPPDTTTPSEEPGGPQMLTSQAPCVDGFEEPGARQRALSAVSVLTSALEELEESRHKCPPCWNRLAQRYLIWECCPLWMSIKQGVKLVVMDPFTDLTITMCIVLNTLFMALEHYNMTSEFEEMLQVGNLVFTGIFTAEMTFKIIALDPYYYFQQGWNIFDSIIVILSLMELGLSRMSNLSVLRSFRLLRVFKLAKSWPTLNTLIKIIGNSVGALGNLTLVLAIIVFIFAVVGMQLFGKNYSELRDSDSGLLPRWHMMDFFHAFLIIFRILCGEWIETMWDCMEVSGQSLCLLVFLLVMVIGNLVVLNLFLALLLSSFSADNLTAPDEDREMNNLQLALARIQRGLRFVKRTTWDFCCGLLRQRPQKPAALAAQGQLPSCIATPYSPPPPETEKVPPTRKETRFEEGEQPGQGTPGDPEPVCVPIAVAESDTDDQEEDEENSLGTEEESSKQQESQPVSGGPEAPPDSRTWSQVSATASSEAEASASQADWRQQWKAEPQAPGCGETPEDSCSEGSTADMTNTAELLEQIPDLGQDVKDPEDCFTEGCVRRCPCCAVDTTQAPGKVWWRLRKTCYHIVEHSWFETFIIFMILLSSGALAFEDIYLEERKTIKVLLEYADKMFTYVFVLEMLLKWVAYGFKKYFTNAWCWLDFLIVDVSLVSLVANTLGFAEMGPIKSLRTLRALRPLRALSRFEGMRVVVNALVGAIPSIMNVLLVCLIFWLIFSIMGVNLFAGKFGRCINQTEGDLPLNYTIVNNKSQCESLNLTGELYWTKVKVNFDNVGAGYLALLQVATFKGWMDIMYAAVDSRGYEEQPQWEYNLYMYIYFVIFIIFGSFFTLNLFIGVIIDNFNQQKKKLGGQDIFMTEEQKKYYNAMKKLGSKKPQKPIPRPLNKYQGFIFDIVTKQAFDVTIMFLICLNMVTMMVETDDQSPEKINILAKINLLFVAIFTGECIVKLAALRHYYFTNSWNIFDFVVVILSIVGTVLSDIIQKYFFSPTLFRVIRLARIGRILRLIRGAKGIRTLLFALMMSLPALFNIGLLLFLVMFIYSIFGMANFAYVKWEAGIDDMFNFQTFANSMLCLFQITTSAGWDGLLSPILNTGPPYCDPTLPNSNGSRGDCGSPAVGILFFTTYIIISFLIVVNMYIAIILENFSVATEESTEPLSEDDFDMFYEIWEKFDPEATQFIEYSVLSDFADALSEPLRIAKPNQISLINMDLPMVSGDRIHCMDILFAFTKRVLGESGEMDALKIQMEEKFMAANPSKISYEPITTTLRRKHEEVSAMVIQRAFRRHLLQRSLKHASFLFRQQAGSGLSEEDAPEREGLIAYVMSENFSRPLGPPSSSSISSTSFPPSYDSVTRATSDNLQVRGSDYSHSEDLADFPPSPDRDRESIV
Sequence of CYP3A4 (P08684 whole entry): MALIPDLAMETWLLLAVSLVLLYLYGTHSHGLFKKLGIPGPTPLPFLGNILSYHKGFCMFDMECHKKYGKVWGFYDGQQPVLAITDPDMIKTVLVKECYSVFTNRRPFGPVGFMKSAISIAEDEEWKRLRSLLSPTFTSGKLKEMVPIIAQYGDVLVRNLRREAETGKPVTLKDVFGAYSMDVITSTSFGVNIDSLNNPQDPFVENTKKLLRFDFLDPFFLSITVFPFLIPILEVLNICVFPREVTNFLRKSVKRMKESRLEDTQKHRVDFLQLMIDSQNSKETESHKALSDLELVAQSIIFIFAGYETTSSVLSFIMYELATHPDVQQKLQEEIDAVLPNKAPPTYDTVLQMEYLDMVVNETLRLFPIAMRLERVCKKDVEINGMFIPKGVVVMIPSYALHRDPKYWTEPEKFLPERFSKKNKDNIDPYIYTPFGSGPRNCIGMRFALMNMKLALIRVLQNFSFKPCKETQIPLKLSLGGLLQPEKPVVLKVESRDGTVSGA

## CC(C)NC(=O)[C@H]1CC[C@@H](n2c(NC(=O)c3ccc(F)cc3)nc3ccc(CN4CCC(C(C)(C)O)CC4)cc32)CC1 [TSR-011]
Calcium channel
  IC50: > 10 µM
hERG [1]
  IC50: 0.172 µM
CYP2D6
  IC50: 32.9 µM
[2]; oral 3, 10 and 15 mg/kg
  Reversibility of cardiovascular parameters: returned to normal by the subsequent dose
[2]; oral doses of 3, 10 and 15 mg/kg
  PR interval: dose-dependent prolongation of the PR interval
[2]; oral, at 15 mg/kg
  Body temperature: mild and transient increase in body temperature
[2]; oral, at 10 and 15 mg/kg
  QRS duration: small and dose-dependent increase in QRS duration
[2]; oral, at ≥ 3 mg/kg
  Heart rate: Increased heart rate
  QTc: prolonged QTc
[2]; oral, at ≥ 10 mg/kg
  Pulse pressure: decreased pulse pressure
hNav1.5
  IC50: 7.6 µM
ALK-positive tumours; ALK inhibitor-naive, RP2D
  Partial response rate: 42.9%
  Stable disease, patients: 57.1%
ALK-positive tumours; ALK pre-treated setting, RP2D
  Objective response rate: 12.5%
ALK-positive tumours; ALK inhibitor-naïve (n = 14)
  Best overall response: Complete response: 0 n (%)
  Best overall response: Progressive disease: 0 n (%)
  Best overall response: Stable disease: 8 (57.1) n (%)
  Objective response: Complete response + partial response: 6 (42.9) n (%)
  Best overall response: Partial response: 6 (42.9) n (%)
ALK-positive tumours; All patients (N = 22)
  Best overall response: Complete response: 0 n (%)
  Best overall response: Progressive disease: 1 (4.5) n (%)
  Best overall response: Stable disease: 14 (63.6) n (%)
  Objective response: Complete response + partial response: 7 (31.8) n (%)
  Best overall response: Partial response: 7 (31.8) n (%)
ALK-positive tumours; [6]
  Best overall response: Complete response: 0 n (%)
  Best overall response: Progressive disease: 1 (12.5) n (%)
  Best overall response: Stable disease: 6 (75.0) n (%)
  Objective response: Complete response + partial response: 1 (12.5) n (%)
  Best overall response: Partial response: 1 (12.5) n (%)
ALK-positive tumours; [7]
  Complete response: No ALK-positive patient had a complete response
  Stable disease, number of patients: 14
ALK-positive tumours; ALK-positive patients (n = 22), 40 mg Q8h, six confirmed, one unconfirmed
  Partial response, number of patients: seven
ALK-positive tumours; one patient
  Response of a patient with neuroblastoma harbouring ALK mutation (R1275Q): did not respond
ALK-positive tumours; [8]
  Partial response rate: 12.5%
  Stable disease, patients: 75.0%
hERG [3]
  IC50: 2.3 µM
CYP3A4
  IC50: 23.3 µM
[4]; 120 mg QD (n = 1)
  Mean ΔQTcF: 19 ms
  Upper bound of the two-sided 90% CI of mean ΔQTcF: 27 ms
[4]; 40-mg TID (Q8h) RP2D
  Frequency of drug-related QTc prolongation: 9.7%
[4]; 40-mg TID (Q8h), one in 27 patients
  Patients with ΔQTc of > 60 ms and QTc > 500 ms (grade 3 event): 3.7%
[4]; 40-mg TID cohort (n = 27), 90% CI 9.75–12.00 ms
  Mean ΔQTcF: 11 ms
[4]; QD doses at 240 mg (n = 3), 320 mg (n = 3) and 480 mg (n = 4)
  ΔQTcF: > 20 ms
[4]; all dose groups, 95% CI 0.01970–0.02747, P < 0.0001
  Slope of linear regression, plasma concentration versus ΔQTcF: 0.02358
[4]; fractionated BID (Q12h) and TID (Q8h) regimens, cumulative daily doses of 60 and 120 mg, all four regimens
  Mean ΔQTcF: below 20 ms
[4]; overall safety population
  Frequency of drug-related QTc prolongation: 16.7%
[5]; 40-mg IR TID cohort
  Highest concentration observed: 2599.50 nmol/L
[5]; 40-mg TID (Q8h), steady state day 29
  Mean Ctrough: 351.38 nM
[5]; human, plasma, po, 40-mg TID (Q8h), steady state day 29
  Cmax at 696 h: 528 nM
[5]; human, plasma, po, cycle 1/day 1, across cohorts
  half-life: 7 to 27 h
[5]; human, plasma, po, cycle 1/day 1, across cohorts, read-out: Apparent volume of distribution
  Vd/F: 188 to 1620 L
[5]; human, plasma, cycle 2/day 1, daily oral 80–480 mg
  Cmax: 447 to 3330 nM
[5]; human, plasma, cycle 2/day 1, daily oral 80–480 mg, read-out: Median tmax
  Tmax: 2 to 6 h
[5]; [9]
  Increase in geometric mean AUC from 0 to 24 h: 42 fold
  Increase in geometric mean Cmax: 41 fold
[5]; [10]
  Increase in exposure for AUC from time 0 to the last measurable concentration: 2.9 fold
  Increase in exposure for Cmax: 3.3 fold
